System: Subjects With Active Crohn's Disease With Evidence of Mucosal Ulceration
Assay: Study 3 - SES-CD endoscopic scores
Type: in vivo, human
Settings: 200 mg, LOCF; for Deep remission (CDAI score < 150 points, SES-CD score ≤ 4, ulcerated subscore ≤ 1 in all 5 segments) / Endoscopic remission (SES-CD % improvement ≤ 4, ulcerated subscore ≤ 1 in all 5 segments) / Endoscopic response (SES-CD % improvement ≥ 50) / Mucosal healing (SES-CD % = 0): 10 weeks
From the text: Double-Blind, Randomized, Placebo-Controlled, Multi-Centre Study to Investigate the Efficacy and Safety of Compound 1 in Subjects With Active Crohn's Disease With Evidence of Mucosal Ulceration. This is a double-blind, randomized, placebo-controlled, multi-centre Phase 2 study to investigate the efficacy and safety of Compound 1 administered once daily for the treatment of active CD with evidence of mucosal ulceration. The pharmacokinetics (including a PK substudy) and pharmacodynamics of Compound 1 and metabolite in CD will also be characterised. A total of 180 eligible subjects will be randomized to receive Compound 1 or placebo in addition to their stable background treatment (eg, corticosteroids, aminosalicylates, or CD-related antibiotics). The study will consist of 2 parts, with total treatment duration of 20 weeks. Randomization in Part 1 will be stratified according the subject's previous anti-TNF exposure/response, CRP level at Screening, and oral corticosteroid use at visit Day −1. After the first 10 weeks of treatment in Part 1, patients will be re-randomized for Part 2 as shown in the diagram below and will be stratified according to the subject's clinical response, previous anti-TNF exposure/response, and oral corticosteroid use at visit Day -1. [table] For the evaluation of disease severity the Crohn's Disease Index of Severity (CDEIS), and the Simple Endoscopic Score for Crohn's Disease (SES-CD) may be used. These are validated scores for the measurement of endoscopic findings, (Sipponen et al, 2010). For the SES-CD, four endoscopic variables in the five segments are scored from 0-3: Variable “presence and size of ulcers” is scored 0 when no ulcers are present, small ulcers (diameter 0.1-0.5 cm) are scored 1, medium-sized ulcers (diameter 0.5-2 cm) 2, and large ulcers (>2 cm) 3. Variable “extent of ulcerated surface” is scored 0 when no ulcers were present, 1 when extent was <10%, 2 when extent is 10%-30%, and 3 when it is >30%. The variable extent of affected surface is scored 0 if none, 1 when <50%, 2 when 50%-75%, and 3 when >75%. The presence and type of narrowings is scored 0 when no narrowings are present, a single passable narrowing is scored 1, multiple passable narrowings are scored 2, and a nonpassable narrowing is scored 3.

[1] = Anti-TNF experienced non-responders
[2] = baseline corticosteroid use: with steroids
[3] = baseline corticosteroid use: without steroids

O=C(Nc1nc2cccc(-c3ccc(CN4CCS(=O)(=O)CC4)cc3)n2n1)C1CC1 [Compound 1, cyclopropanecarboxylic acid {5-[4-(1,1-dioxo-thiomorpholin-4-ylmethyl)-phenyl]-[1,2,4]triazolo[1,5-a]pyridin-2-yl}-amide]
Deep remission (CDAI score < 150 points, SES-CD score ≤ 4, ulcerated subscore ≤ 1 in all 5 segments) (Anti-TNF Naïve): 0% | Endoscopic remission (SES-CD % improvement ≤ 4, ulcerated subscore ≤ 1 in all 5 segments) (Anti-TNF Naïve): 16% | Endoscopic response (SES-CD % improvement ≥ 50) (Anti-TNF Naïve): 28% | Mucosal healing (SES-CD % = 0) (Anti-TNF Naïve): 0% | Deep remission (CDAI score < 150 points, SES-CD score ≤ 4, ulcerated subscore ≤ 1 in all 5 segments) [1]: 6% | Endoscopic remission (SES-CD % improvement ≤ 4, ulcerated subscore ≤ 1 in all 5 segments) [1]: 12% | Endoscopic response (SES-CD % improvement ≥ 50) [1]: 23% | Mucosal healing (SES-CD % = 0) [1]: 1% | Deep remission (CDAI score < 150 points, SES-CD score ≤ 4, ulcerated subscore ≤ 1 in all 5 segments) [2]: 0% | Endoscopic remission (SES-CD % improvement ≤ 4, ulcerated subscore ≤ 1 in all 5 segments) [2]: 12% | Endoscopic response (SES-CD % improvement ≥ 50) [2]: 22% | Mucosal healing (SES-CD % = 0) [2]: 0% | Deep remission (CDAI score < 150 points, SES-CD score ≤ 4, ulcerated subscore ≤ 1 in all 5 segments) [3]: 5% | Endoscopic remission (SES-CD % improvement ≤ 4, ulcerated subscore ≤ 1 in all 5 segments) [3]: 15% | Endoscopic response (SES-CD % improvement ≥ 50) [3]: 28% | Mucosal healing (SES-CD % = 0) [3]: 5% | Deep remission (CDAI score < 150 points, SES-CD score ≤ 4, ulcerated subscore ≤ 1 in all 5 segments) (overall): 8% | Endoscopic remission (SES-CD % improvement ≤ 4, ulcerated subscore ≤ 1 in all 5 segments) (overall): 14% | Endoscopic response (SES-CD % improvement ≥ 50) (overall): 25% | Mucosal healing (SES-CD % = 0) (overall): 2% | Deep remission (CDAI score < 150 points, SES-CD score ≤ 4, ulcerated subscore ≤ 1 in all 5 segments) (screening CRP ≤ 10 ml/L): 10% | Endoscopic remission (SES-CD % improvement ≤ 4, ulcerated subscore ≤ 1 in all 5 segments) (screening CRP ≤ 10 ml/L): 16% | Endoscopic response (SES-CD % improvement ≥ 50) (screening CRP ≤ 10 ml/L): 23% | Mucosal healing (SES-CD % = 0) (screening CRP ≤ 10 ml/L): 3% | Deep remission (CDAI score < 150 points, SES-CD score ≤ 4, ulcerated subscore ≤ 1 in all 5 segments) (screening CRP ≥ 10 mg/L): 0% | Endoscopic remission (SES-CD % improvement ≤ 4, ulcerated subscore ≤ 1 in all 5 segments) (screening CRP ≥ 10 mg/L): 0% | Endoscopic response (SES-CD % improvement ≥ 50) (screening CRP ≥ 10 mg/L): 28% | Mucosal healing (SES-CD % = 0) (screening CRP ≥ 10 mg/L): 0% | SES-CD mean, baseline (Baseline): 14.2 | SES-CD mean CFB, W 10 (week 10): −2.6 | SES-CD mean, W 10 (week 10): 11.6

From US20180200257A1, “METHODS FOR THE TREATMENT OF INFLAMMATORY DISORDERS” (Galapagos NV, priority 2015, published 2018)
